Series [1] concerns the target T1, DehI (Pseudomonas putida, UniProt Q8GJ84).
T1 construct: domains 1-130 and 166-296, linker 131-165
T1 sequence (Q8GJ84 1-296): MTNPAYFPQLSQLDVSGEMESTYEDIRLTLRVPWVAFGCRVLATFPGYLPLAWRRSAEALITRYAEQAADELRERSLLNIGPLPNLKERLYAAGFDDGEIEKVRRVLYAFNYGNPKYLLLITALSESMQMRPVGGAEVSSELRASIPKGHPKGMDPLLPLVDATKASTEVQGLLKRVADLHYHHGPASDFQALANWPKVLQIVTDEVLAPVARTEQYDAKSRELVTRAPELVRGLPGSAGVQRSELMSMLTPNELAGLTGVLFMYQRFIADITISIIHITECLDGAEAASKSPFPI
The series is described as follows: colorimetric phenol red dehalogenase assay, absorbance at […] nm. Type of series: biochemical. To be noted: 10 mM substrate, 10 uM enzyme, 50 mM HEPES pH 8.2, 20 mM Na2SO4, 1 mM EDTA, room temperature overnight.

Series [2] concerns the molecule itself. As to the kind of experiment: SEC-MALS; DehI in solution, mono-dispersed major elution peak; buffer A (20 mM potassium phosphate pH 8, 300 mM NaCl) unless stated otherwise; observed MW compared with the theoretical MW of the homodimer.

On to `CC(Cl)C(=O)O` (centres unmarked) [2-chloropropionic acid], for which the “colorimetric phenol red dehalogenase assay, absorbance at 559 nm” value in series [1] was 2-chloropropionic acid was used as the substrate of DehI.

B1: DehI, α-haloacid dehalogenase from Pseudomonas putida strain PP3 (enzyme)
chain: T1 sequence (Q8GJ84 1-296)
notes: DehI, α-haloacid dehalogenase, Pseudomonas putida strain PP3; No tag cleavage is described; The theoretical MW of the homodimer is printed as 69.9 kDa, which may include the tag (surmise); also called wt; source: E. coli BL21 (DE3), purified (HisTrap HP, Superdex 200 SEC)
Regarding B1, in series [2], the “stoichiometry N” value was determined as 2.

For the origin of these results see PMC4985754, “Folding analysis of the most complex Stevedore’s protein knot” (Scientific Reports, 2016).
